Experimental data: patent US4243408A, “Herbicidal N-triazolylmethyl-substituted alpha-haloacetanilide” (Chevron Research Company, priority 1978, dated 1981)

system: Pigweed (Amaranthus retroflexus); test: Post-Emergent Test, herbicidal effectiveness; assay type: in vivo; settings: post-emergence, 504 h, 33 micrograms per cm^2, 3 weeks, 0-to-100 scale, read-out: Herbicidal Effectiveness, % Control Post, P
Outline: (§1)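 Sprayed at 5000 ppm in acetone/water with nonionic surfactant, 33 micrograms/cm^2, onto two pots of 24-day-old plants; kept in greenhouse with base watering. Phytotoxicity rated after 3 weeks on a 0-100 scale (0 no effect, 100 complete kill).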

Structure (SMILES)	pest or weed control at 5000 µg/mL, 33 µg/cm2
CCc1cccc(CC)c1NCc1nnc(SC)n1C [Compound 23A]	0%
CCc1cccc(C)c1NCc1nnc(C(C)C)[nH]1 [Compound 16A]	0%
CCc1cccc(CC)c1N(Cc1nnc[nH]1)C(=O)CCl [Compound 20B]	35%
CCc1nnc(CN(C(=O)CCl)c2c(C)cccc2CC)[nH]1 [Compound 15B]	30%
CCc1cccc(C)c1NCc1nnc(C)[nH]1 [Compound 6A]	0%
Cc1cccc(C)c1N(C(=O)CCl)C(C)c1nnc[nH]1 (stereo not drawn) [Compound 12B]	20%
Cc1nnc(CNc2c(C)cccc2Cl)[nH]1 [Compound 22A]	0%

system: Watergrass (Echinochloa); test: Post-Emergent Test, herbicidal effectiveness; assay type: in vivo; settings: post-emergence, 504 h, 33 micrograms per cm^2, 3 weeks, 0-to-100 scale, read-out: Herbicidal Effectiveness, % Control Post, W
Outline: as §1

Structure (SMILES)	pest or weed control at 5000 µg/mL, 33 µg/cm2
CCc1cccc(CC)c1NCc1nnc(SC)n1C [Compound 23A]	0%
CCc1cccc(C)c1NCc1nnc(C(C)C)[nH]1 [Compound 16A]	0%
CCc1cccc(CC)c1N(Cc1nnc[nH]1)C(=O)CCl [Compound 20B]	55%
CCc1nnc(CN(C(=O)CCl)c2c(C)cccc2CC)[nH]1 [Compound 15B]	80%
CCc1cccc(C)c1NCc1nnc(C)[nH]1 [Compound 6A]	0%
Cc1cccc(C)c1N(C(=O)CCl)C(C)c1nnc[nH]1 (stereo not drawn) [Compound 12B]	80%
Cc1nnc(CNc2c(C)cccc2Cl)[nH]1 [Compound 22A]	0%

system: Lambsquarter (Chenopodium album); test: Post-Emergent Test, herbicidal effectiveness; assay type: in vivo; settings: post-emergence, 504 h, 33 micrograms per cm^2, 3 weeks, 0-to-100 scale, read-out: Herbicidal Effectiveness, % Control Post, L
Outline: as §1

Structure (SMILES)	pest or weed control at 5000 µg/mL, 33 µg/cm2
CCc1cccc(CC)c1NCc1nnc(SC)n1C [Compound 23A]	0%
CCc1cccc(C)c1NCc1nnc(C(C)C)[nH]1 [Compound 16A]	0%
CCc1cccc(CC)c1N(Cc1nnc[nH]1)C(=O)CCl [Compound 20B]	25%
CCc1nnc(CN(C(=O)CCl)c2c(C)cccc2CC)[nH]1 [Compound 15B]	35%
CCc1cccc(C)c1NCc1nnc(C)[nH]1 [Compound 6A]	0%
Cc1cccc(C)c1N(C(=O)CCl)C(C)c1nnc[nH]1 (stereo not drawn) [Compound 12B]	45%
Cc1nnc(CNc2c(C)cccc2Cl)[nH]1 [Compound 22A]	0%

system: Wild Oats (Avena fatua); test: Post-Emergent Test, herbicidal effectiveness; assay type: in vivo; settings: post-emergence, 504 h, 33 micrograms per cm^2, 3 weeks, 0-to-100 scale, read-out: Herbicidal Effectiveness, % Control Post, O
Outline: as §1

Structure (SMILES)	pest or weed control at 5000 µg/mL, 33 µg/cm2
CCc1cccc(CC)c1NCc1nnc(SC)n1C [Compound 23A]	0%
CCc1cccc(C)c1NCc1nnc(C(C)C)[nH]1 [Compound 16A]	0%
CCc1cccc(CC)c1N(Cc1nnc[nH]1)C(=O)CCl [Compound 20B]	0%
CCc1nnc(CN(C(=O)CCl)c2c(C)cccc2CC)[nH]1 [Compound 15B]	55%
CCc1cccc(C)c1NCc1nnc(C)[nH]1 [Compound 6A]	0%
Cc1cccc(C)c1N(C(=O)CCl)C(C)c1nnc[nH]1 (stereo not drawn) [Compound 12B]	45%
Cc1nnc(CNc2c(C)cccc2Cl)[nH]1 [Compound 22A]	0%

system: Crabgrass (Digitaria sanguinalis); test: Post-Emergent Test, herbicidal effectiveness; assay type: in vivo; settings: post-emergence, 504 h, 33 micrograms per cm^2, 3 weeks, 0-to-100 scale, read-out: Herbicidal Effectiveness, % Control Post, C
Outline: as §1

Structure (SMILES)	pest or weed control at 5000 µg/mL, 33 µg/cm2
CCc1cccc(CC)c1NCc1nnc(SC)n1C [Compound 23A]	0%
CCc1cccc(C)c1NCc1nnc(C(C)C)[nH]1 [Compound 16A]	0%
CCc1cccc(CC)c1N(Cc1nnc[nH]1)C(=O)CCl [Compound 20B]	30%
CCc1nnc(CN(C(=O)CCl)c2c(C)cccc2CC)[nH]1 [Compound 15B]	75%
CCc1cccc(C)c1NCc1nnc(C)[nH]1 [Compound 6A]	0%
Cc1cccc(C)c1N(C(=O)CCl)C(C)c1nnc[nH]1 (stereo not drawn) [Compound 12B]	65%
Cc1nnc(CNc2c(C)cccc2Cl)[nH]1 [Compound 22A]	0%

system: Mustard (Brassica arvensis); test: Post-Emergent Test, herbicidal effectiveness; assay type: in vivo; settings: post-emergence, 504 h, 33 micrograms per cm^2, 3 weeks, 0-to-100 scale
Outline: as §1

Structure (SMILES)	pest or weed control at 5000 µg/mL, 33 µg/cm2
CCc1cccc(CC)c1NCc1nnc(SC)n1C [Compound 23A]	0%
CCc1cccc(C)c1NCc1nnc(C(C)C)[nH]1 [Compound 16A]	0%
CCc1cccc(CC)c1N(Cc1nnc[nH]1)C(=O)CCl [Compound 20B]	30%
CCc1nnc(CN(C(=O)CCl)c2c(C)cccc2CC)[nH]1 [Compound 15B]	35%
CCc1cccc(C)c1NCc1nnc(C)[nH]1 [Compound 6A]	0%
Cc1cccc(C)c1N(C(=O)CCl)C(C)c1nnc[nH]1 (stereo not drawn) [Compound 12B]	0%
Cc1nnc(CNc2c(C)cccc2Cl)[nH]1 [Compound 22A]	0%

system: Pigweed (Amaranthus retroflexus); test: Pre-Emergent Test, herbicidal effectiveness; assay type: in vivo; settings: pre-emergence, 504 h, 33 micrograms per cm^2, 3 weeks, 0-to-100 scale, read-out: Herbicidal Effectiveness, % Control Pre, P
Outline: (§2)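 Seeds planted in soil, then surface sprayed pre-emergence at 33 micrograms/cm^2 with compound in acetone/surfactant/water; pots watered and kept in greenhouse. Herbicidal effect scored visually on 0–100 scale (0 no phytotoxicity, 100 complete kill).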

Structure (SMILES)	pest or weed control at 33 µg/cm2
CCc1cccc(CC)c1NCc1nnc(SC)n1C [Compound 23A]	0%
CCc1cccc(C)c1NCc1nnc(C(C)C)[nH]1 [Compound 16A]	0%
CCc1cccc(CC)c1N(Cc1nnc[nH]1)C(=O)CCl [Compound 20B]	100%
CCc1nnc(CN(C(=O)CCl)c2c(C)cccc2CC)[nH]1 [Compound 15B]	100%
CCc1cccc(C)c1NCc1nnc(C)[nH]1 [Compound 6A]	0%
Cc1cccc(C)c1N(C(=O)CCl)C(C)c1nnc[nH]1 (stereo not drawn) [Compound 12B]	90%
Cc1nnc(CNc2c(C)cccc2Cl)[nH]1 [Compound 22A]	0%

system: Watergrass (Echinochloa); test: Pre-Emergent Test, herbicidal effectiveness; assay type: in vivo; settings: pre-emergence, 504 h, 33 micrograms per cm^2, 3 weeks, 0-to-100 scale, read-out: Herbicidal Effectiveness, % Control Pre, W
Outline: as §2

Structure (SMILES)	pest or weed control at 33 µg/cm2
CCc1cccc(CC)c1NCc1nnc(SC)n1C [Compound 23A]	0%
CCc1cccc(C)c1NCc1nnc(C(C)C)[nH]1 [Compound 16A]	0%
CCc1cccc(CC)c1N(Cc1nnc[nH]1)C(=O)CCl [Compound 20B]	100%
CCc1nnc(CN(C(=O)CCl)c2c(C)cccc2CC)[nH]1 [Compound 15B]	100%
CCc1cccc(C)c1NCc1nnc(C)[nH]1 [Compound 6A]	0%
Cc1cccc(C)c1N(C(=O)CCl)C(C)c1nnc[nH]1 (stereo not drawn) [Compound 12B]	100%
Cc1nnc(CNc2c(C)cccc2Cl)[nH]1 [Compound 22A]	0%

system: Lambsquarter (Chenopodium album); test: Pre-Emergent Test, herbicidal effectiveness; assay type: in vivo; settings: pre-emergence, 504 h, 33 micrograms per cm^2, 3 weeks, 0-to-100 scale, read-out: Herbicidal Effectiveness, % Control Pre, L
Outline: as §2

Structure (SMILES)	pest or weed control at 33 µg/cm2
CCc1cccc(CC)c1NCc1nnc(SC)n1C [Compound 23A]	0%
CCc1cccc(C)c1NCc1nnc(C(C)C)[nH]1 [Compound 16A]	0%
CCc1cccc(CC)c1N(Cc1nnc[nH]1)C(=O)CCl [Compound 20B]	97%
CCc1nnc(CN(C(=O)CCl)c2c(C)cccc2CC)[nH]1 [Compound 15B]	100%
CCc1cccc(C)c1NCc1nnc(C)[nH]1 [Compound 6A]	0%
Cc1cccc(C)c1N(C(=O)CCl)C(C)c1nnc[nH]1 (stereo not drawn) [Compound 12B]	75%
Cc1nnc(CNc2c(C)cccc2Cl)[nH]1 [Compound 22A]	0%

system: Wild Oats (Avena fatua); test: Pre-Emergent Test, herbicidal effectiveness; assay type: in vivo; settings: pre-emergence, 504 h, 33 micrograms per cm^2, 3 weeks, 0-to-100 scale, read-out: Herbicidal Effectiveness, % Control Pre, O
Outline: as §2

Structure (SMILES)	pest or weed control at 33 µg/cm2
CCc1cccc(CC)c1NCc1nnc(SC)n1C [Compound 23A]	0%
CCc1cccc(C)c1NCc1nnc(C(C)C)[nH]1 [Compound 16A]	0%
CCc1cccc(CC)c1N(Cc1nnc[nH]1)C(=O)CCl [Compound 20B]	97%
CCc1nnc(CN(C(=O)CCl)c2c(C)cccc2CC)[nH]1 [Compound 15B]	100%
CCc1cccc(C)c1NCc1nnc(C)[nH]1 [Compound 6A]	0%
Cc1cccc(C)c1N(C(=O)CCl)C(C)c1nnc[nH]1 (stereo not drawn) [Compound 12B]	97%
Cc1nnc(CNc2c(C)cccc2Cl)[nH]1 [Compound 22A]	0%

system: Crabgrass (Digitaria sanguinalis); test: Pre-Emergent Test, herbicidal effectiveness; assay type: in vivo; settings: pre-emergence, 504 h, 33 micrograms per cm^2, 3 weeks, 0-to-100 scale, read-out: Herbicidal Effectiveness, % Control Pre, C
Outline: as §2

Structure (SMILES)	pest or weed control at 33 µg/cm2
CCc1cccc(CC)c1NCc1nnc(SC)n1C [Compound 23A]	0%
CCc1cccc(C)c1NCc1nnc(C(C)C)[nH]1 [Compound 16A]	0%
CCc1cccc(CC)c1N(Cc1nnc[nH]1)C(=O)CCl [Compound 20B]	95%
CCc1nnc(CN(C(=O)CCl)c2c(C)cccc2CC)[nH]1 [Compound 15B]	100%
CCc1cccc(C)c1NCc1nnc(C)[nH]1 [Compound 6A]	0%
Cc1cccc(C)c1N(C(=O)CCl)C(C)c1nnc[nH]1 (stereo not drawn) [Compound 12B]	100%
Cc1nnc(CNc2c(C)cccc2Cl)[nH]1 [Compound 22A]	0%

system: Mustard (Brassica arvensis); test: Pre-Emergent Test, herbicidal effectiveness; assay type: in vivo; settings: pre-emergence, 504 h, 33 micrograms per cm^2, 3 weeks, 0-to-100 scale
Outline: as §2

Structure (SMILES)	pest or weed control at 33 µg/cm2
CCc1cccc(CC)c1NCc1nnc(SC)n1C [Compound 23A]	0%
CCc1cccc(C)c1NCc1nnc(C(C)C)[nH]1 [Compound 16A]	0%
CCc1cccc(CC)c1N(Cc1nnc[nH]1)C(=O)CCl [Compound 20B]	95%
CCc1nnc(CN(C(=O)CCl)c2c(C)cccc2CC)[nH]1 [Compound 15B]	100%
CCc1cccc(C)c1NCc1nnc(C)[nH]1 [Compound 6A]	0%
Cc1cccc(C)c1N(C(=O)CCl)C(C)c1nnc[nH]1 (stereo not drawn) [Compound 12B]	75%
Cc1nnc(CNc2c(C)cccc2Cl)[nH]1 [Compound 22A]	0%
